Experimental data published in patent publication US10479780B2, “Aminopyrazole derivatives” (Chugai Seiyaku Kabushiki Kaisha, priority 2015, dated 2019).
Like-named read-outs stand apart in the source and are kept apart here.

Legend:
Assay type in all cases: biochemical
[1] = molecular target: T1, human Src enzyme (Homo sapiens, UniProt P12931); assay: Src enzyme inhibitory activity (time-resolved fluorometry, biotinylated peptide phosphorylation); conditions: read-out: SRC_IC50
T1 construct: purchased Carna Biosciences, Inc. 08-173
T1 sequence (P12931 whole entry): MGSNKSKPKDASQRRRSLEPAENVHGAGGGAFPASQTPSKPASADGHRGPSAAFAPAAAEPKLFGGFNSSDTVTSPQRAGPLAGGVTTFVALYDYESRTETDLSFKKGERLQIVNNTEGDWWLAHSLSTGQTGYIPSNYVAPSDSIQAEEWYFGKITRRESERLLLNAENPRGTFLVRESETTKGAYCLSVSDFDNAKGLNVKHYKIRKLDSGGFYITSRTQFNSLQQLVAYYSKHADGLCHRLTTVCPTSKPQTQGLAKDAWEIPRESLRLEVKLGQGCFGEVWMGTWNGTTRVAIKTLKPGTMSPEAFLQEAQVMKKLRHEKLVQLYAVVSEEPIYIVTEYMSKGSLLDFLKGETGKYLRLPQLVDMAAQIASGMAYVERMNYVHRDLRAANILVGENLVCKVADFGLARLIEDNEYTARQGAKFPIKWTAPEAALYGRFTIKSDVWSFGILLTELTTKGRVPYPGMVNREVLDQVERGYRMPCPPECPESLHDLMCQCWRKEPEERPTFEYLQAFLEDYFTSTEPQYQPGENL
How it was run: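 Compounds were tested for blocking tyrosine phosphorylation of a biotinylated peptide substrate by recombinant human Src. Phosphorylated product was quantified by time-resolved fluorometry using europium cryptate and XL665 conjugates, and IC50 was calculated against the compound-free control.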

[2] = molecular target: T2, human Lck enzyme (Homo sapiens, UniProt P06239); assay: Lck enzyme inhibitory activity (time-resolved fluorometry, biotinylated peptide phosphorylation); conditions: read-out: LCK_IC50
T2 construct: purchased Carna Biosciences, Inc. 08-170
T2 sequence (P06239 whole entry): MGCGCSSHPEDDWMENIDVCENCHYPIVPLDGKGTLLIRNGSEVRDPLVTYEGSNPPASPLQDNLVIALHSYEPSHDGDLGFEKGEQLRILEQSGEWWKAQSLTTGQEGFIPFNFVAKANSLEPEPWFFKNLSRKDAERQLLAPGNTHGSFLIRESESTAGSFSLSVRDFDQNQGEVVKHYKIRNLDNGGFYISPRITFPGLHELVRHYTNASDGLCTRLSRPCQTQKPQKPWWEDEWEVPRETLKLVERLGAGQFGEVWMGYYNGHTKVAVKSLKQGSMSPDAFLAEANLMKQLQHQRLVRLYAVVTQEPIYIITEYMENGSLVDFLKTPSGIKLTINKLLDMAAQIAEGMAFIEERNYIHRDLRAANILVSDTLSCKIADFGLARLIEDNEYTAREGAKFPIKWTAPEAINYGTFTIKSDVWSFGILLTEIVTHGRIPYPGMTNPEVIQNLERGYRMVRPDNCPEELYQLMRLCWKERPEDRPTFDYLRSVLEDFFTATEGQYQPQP
How it was run: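 Readout pairs a europium cryptate-labelled anti-phosphotyrosine antibody with XL665-streptavidin, measured by time-resolved fluorescence. IC50 derived from percent inhibition against untreated controls.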

[3] = molecular target: T3, human Yes1 enzyme (Homo sapiens, UniProt P07947); assay: Yes1 enzyme inhibitory activity (time-resolved fluorometry, biotinylated peptide phosphorylation); conditions: read-out: YES_IC50
T3 construct: made in house
T3 sequence (P07947 whole entry): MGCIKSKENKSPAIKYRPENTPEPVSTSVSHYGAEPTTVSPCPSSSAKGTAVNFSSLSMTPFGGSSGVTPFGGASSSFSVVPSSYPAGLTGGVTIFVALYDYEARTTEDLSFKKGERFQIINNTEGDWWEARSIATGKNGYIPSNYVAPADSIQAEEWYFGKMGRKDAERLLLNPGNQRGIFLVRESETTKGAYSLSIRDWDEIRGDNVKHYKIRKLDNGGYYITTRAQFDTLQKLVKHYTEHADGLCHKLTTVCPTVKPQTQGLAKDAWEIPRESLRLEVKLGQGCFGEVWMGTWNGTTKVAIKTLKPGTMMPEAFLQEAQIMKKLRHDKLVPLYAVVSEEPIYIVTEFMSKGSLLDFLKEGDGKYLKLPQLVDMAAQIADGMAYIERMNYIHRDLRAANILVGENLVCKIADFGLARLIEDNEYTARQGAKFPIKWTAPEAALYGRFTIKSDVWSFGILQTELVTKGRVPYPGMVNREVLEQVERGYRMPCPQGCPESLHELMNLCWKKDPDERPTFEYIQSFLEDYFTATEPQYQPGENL
How it was run: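 Inhibition was expressed against a compound-free control to give IC50, using TR-FRET read-out (Eu-cryptate anti-pTyr antibody, streptavidin-XL665).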

[4] = biotinylated peptide phosphorylation

| SMILES | IC50 [1] [nM] | IC50 [2] [nM] | IC50 [3] [nM] | IC50 [1, 4] [nM] | IC50 [2, 4] [nM] | IC50 [3, 4] [nM] |
| --- | --- | --- | --- | --- | --- | --- |
| Cc1cc(-n2ncc(C(=O)c3cc4cc(OC5CCN(C(C)C)CC5)c(N5C(=O)NC(C)(C)C5=O)cc4[nH]3)c2N)ccc1Oc1ccccc1F [Example 5-1-180, 3-[2-[5-amino-1-[4-(2-fluorophenoxy)-3-methylphenyl]pyrazole-4-carbonyl]-5-(1-propan-2-ylpiperidin-4-yl)oxy-1H-indol-6-yl]-5,5-dimethylimidazolidine-2,4-dione] | 95 | 6.3 | 0.35 | – | – | – |
| Cc1cc(Oc2c(F)cccc2F)ncc1-n1ncc(C(=O)c2cc3cc(OC4CCN(C5CS(=O)(=O)C5)CC4)c(-c4ccccc4C(F)(F)F)cc3[nH]2)c1N [Example 5-1-388, [5-amino-1-[6-(2,6-difluorophenoxy)-4-methylpyridin-3-yl]pyrazol-4-yl]-[5-[1-(1,1-dioxothietan-3-yl)piperidin-4-yl]oxy-6-[2-(trifluoromethyl)phenyl]-1H-indol-2-yl] methanone] | 220 | 47 | 4.2 | – | – | – |
| Cc1cc(Oc2ccccc2F)ccc1-n1ncc(C(=O)c2cc3cc(OC(F)F)c(NS(=O)(=O)N4CCOCC4)cc3[nH]2)c1N [Example 4-22-001, N-(2-(5-amino-1-(4-(2-fluorophenoxy)-2-methylphenyl)-1H-pyrazole-4-carbonyl)-5-(difluoromethoxy)-1H-indol-6-yl)morpholine-4-sulfonamide] | – | – | – | 90 | 34 | 2.6 |
| CC(C)N1CCC(c2cc3[nH]c(C(=O)c4cnn(-c5ccc(Oc6cccc(F)c6)cc5)c4N)cc3cc2F)CC1 [Example 5-1-014, [5-amino-1-[4-(3-fluorophenoxy)phenyl]pyrazol-4-yl]-[5-fluoro-6-(1-propan-2-ylpiperidin-4-yl)-1H-indol-2-yl]methanone] | 43 | 3 | 2.4 | – | – | – |
| Cc1cc2cc(C(=O)c3cnn(-c4ccc(Oc5cc(F)ccc5F)cc4C)c3N)[nH]c2cc1NS(C)(=O)=O [Example 5-1-107, N-[2-[5-amino-1-[4-(2,5-difluorophenoxy)-2-methylphenyl]pyrazole-4-carbonyl]-5-methyl-1H-indol-6-yl]methanesulfonamide] | 96 | 7.9 | 1.5 | – | – | – |
| Cc1cc(-n2ncc(C(=O)c3cc4cc(N5CCOCC5)c(N5CCN(S(C)(=O)=O)CC5)cc4[nH]3)c2N)ccc1Oc1ccccc1F [Example 5-1-158, [5-amino-1-[4-(2-fluorophenoxy)-3-methylphenyl]pyrazol-4-yl]-[6-(4-methylsulfonylpiperazin-1-yl)-5-morpholin-4-yl-1H-indol-2-yl]methanone] | 76 | 42 | 0.9 | – | – | – |
| COc1cccc(S(=O)(=O)Nc2cc3[nH]c(C(=O)c4cnn(-c5cnc(Oc6ccccc6F)cc5C)c4N)cc3cc2OCC(F)F)c1 [Example 5-1-419, N-[2-[5-amino-1-[6-(2-fluorophenoxy)-4-methylpyridin-3-yl]pyrazole-4-carbonyl]-5-(2,2-difluoroethoxy)-1H-indol-6-yl]-3-methoxybenzenesulfonamide] | – | – | – | 790 | 220 | 5.6 |
| COc1ccnc(S(=O)(=O)Nc2cc3[nH]c(C(=O)c4cnn(-c5cnc(Oc6c(F)cccc6F)cc5C)c4N)cc3cc2C)c1 [Example 5-1-511, N-[2-[5-amino-1-[6-(2,6-difluorophenoxy)-4-methylpyridin-3-yl]pyrazole-4-carbonyl]-5-methyl-1H-indol-6-yl]-4-methoxypyridine-2-sulfonamide] | – | – | – | 520 | 240 | 2.7 |
| Cc1ccccc1Oc1cc(C)c(-n2ncc(C(=O)c3cc4cc(F)c(NS(=O)(=O)CCCF)cc4[nH]3)c2N)cn1 [Example 4-2-025, N-[2-[5-amino-1-[4-methyl-6-(2-methylphenoxy)pyridin-3-yl]pyrazole-4-carbonyl]-5-fluoro-1H-indol-6-yl]-3-fluoropropane-1-sulfonamide] | – | – | – | 52 | 35 | 2.4 |
| COc1cc2cc(C(=O)c3cnn(-c4cnc(Oc5ccccc5F)cc4C)c3N)[nH]c2cc1NS(=O)(=O)CC(=O)NC(C)C [Example 4-10-015, 2-[[2-[5-amino-1-[6-(2-fluorophenoxy)-4-methylpyridin-3-yl]pyrazole-4-carbonyl]-5-methoxy-1H-indol-6-yl]sulfamoyl]-N-propan-2-ylacetamide] | – | – | – | 58 | 7.2 | 1.1 |
| Cc1cc(Oc2ccccc2F)ccc1-n1ncc(C(=O)c2cc3cc(OCC(F)F)c(NS(=O)(=O)CCCF)cc3[nH]2)c1N [Example 4-24-022, N-[2-[5-amino-1-[4-(2-fluorophenoxy)-2-methylphenyl]pyrazole-4-carbonyl]-5-(2,2-difluoroethoxy)-1H-indol-6-yl]-3-fluoropropane-1-sulfonamide] | – | – | – | 30 | 22 | 3.2 |
| Cc1cc2cc(C(=O)c3cnn(-c4cnc(Oc5c(F)cccc5F)cc4C)c3N)[nH]c2cc1N1CCC(N2CCOCC2)CC1 [Example 4-2-125, [5-amino-1-[6-(2,6-difluorophenoxy)-4-methylpyridin-3-yl]pyrazol-4-yl]-[5-methyl-6-(4-morpholin-4-ylpiperidin-1-yl)-1H-indol-2-yl]methanone] | – | – | – | 28 | 2.6 | 2.4 |
| Cc1cc(Oc2c(F)cccc2F)ncc1-n1ncc(C(=O)c2cc3cc(F)c(NS(=O)(=O)C4CC4)cc3[nH]2)c1N [Example 4-2-044, N-[2-[5-amino-1-[6-(2,6-difluorophenoxy)-4-methylpyridin-3-yl]pyrazole-4-carbonyl]-5-fluoro-1H-indol-6-yl]cyclopropanesulfonamide] | – | – | – | 160 | 32 | 7 |
| Cc1cc(Oc2ccccc2F)ccc1-n1ncc(C(=O)c2cc3cc(F)c(NS(N)(=O)=O)cc3[nH]2)c1N [Example 4-20-001, 2-[5-amino-1-[4-(2-fluorophenoxy)-2-methylphenyl]pyrazole-4-carbonyl]-5-fluoro-6-(sulfamoylamino)-1H-indole] | – | – | – | 31 | 3.5 | 0.64 |
| Cc1cc2cc(C(=O)c3cnn(-c4cnc(Oc5c(F)cccc5F)cc4C)c3N)[nH]c2cc1NS(=O)(=O)c1cccc(Cl)n1 [Example 5-1-526, N-[2-[5-amino-1-[6-(2,6-difluorophenoxy)-4-methylpyridin-3-yl]pyrazole-4-carbonyl]-5-methyl-1H-indol-6-yl]-6-chloropyridine-2-sulfonamide] | – | – | – | 620 | 250 | 8 |
| Cc1cc(Oc2ccccc2F)ccc1-n1ncc(C(=O)c2cc3cc(OCC(F)F)c(N4C(=O)N[C@@H](Cc5ccc(O)cc5)C4=O)cc3[nH]2)c1N [Example 5-1-251, (5S)-3-[2-[5-amino-1-[4-(2-fluorophenoxy)-2-methylphenyl]pyrazole-4-carbonyl]-5-(2,2-difluoroethoxy)-1H-indol-6-yl]-5-[(4-hydroxyphenyl)methyl]imidazolidine-2,4-dione] | 25 | 15 | 3.8 | – | – | – |
| Cc1cc2cc(C(=O)c3cnn(-c4cnc(Oc5ccccc5F)cc4C)c3N)[nH]c2cc1NS(=O)(=O)c1cccc(C(F)(F)F)c1 [Example 5-1-463, N-[2-[5-amino-1-[6-(2-fluorophenoxy)-4-methylpyridin-3-yl]pyrazole-4-carbonyl]-5-methyl-1H-indol-6-yl]-3-(trifluoromethyl) benzenesulfonamide] | – | – | – | 1900 | 420 | 12 |
| Cc1cc(Oc2c(F)cccc2F)ncc1-n1ncc(C(=O)c2cc3cc(F)c(N4C(=O)NC(C)(C(F)(F)F)C4=O)cc3[nH]2)c1N (stereo not drawn) [Example 5-1-370, 3-[2-[5-amino-1-[6-(2,6-difluorophenoxy)-4-methylpyridin-3-yl]pyrazole-4-carbonyl]-5-fluoro-1H-indol-6-yl]-5-methyl-5-(trifluoromethyl)imidazolidine-2,4-dione] | 150 | 27 | 8.3 | – | – | – |
| Cc1cc(-n2ncc(C(=O)c3cc4cc(OC5CCN(C6CS(=O)(=O)C6)CC5)c(-c5cncnc5)cc4[nH]3)c2N)ccc1Oc1ccccc1F [Example 5-1-283, [5-amino-1-[4-(2-fluorophenoxy)-3-methylphenyl]pyrazol-4-yl]-[5-[1-(1,1-dioxothietan-3-yl)piperidin-4-yl]oxy-6-pyrimidin-5-yl-1H-indol-2-yl]methanone] | 270 | 32 | 2 | – | – | – |
| Cc1cc(Oc2c(F)cccc2F)ncc1-n1ncc(C(=O)c2cc3cc(OC4CCN(C(C)C)CC4)c(C4CCOCC4)cc3[nH]2)c1N [Example 5-1-248, [5-amino-1-[6-(2,6-difluorophenoxy)-4-methylpyridin-3-yl]pyrazol-4-yl]-[6-(oxan-4-yl)-5-(1-propan-2-ylpiperidin-4-yl)oxy-1H-indol-2-yl]methanone] | 7.9 | 4.7 | 0.97 | – | – | – |
| Cc1cc(Oc2ccccc2F)ncc1-n1ncc(C(=O)c2cc3cc(N4CCOCC4)c(N4CCCS4(=O)=O)cc3[nH]2)c1N [Example 4-25-007, [5-amino-1-[6-(2-fluorophenoxy)-4-methylpyridin-3-yl]pyrazol-4-yl]-[6-(1,1-dioxo-1,2-thiazolidin-2-yl)-5-morpholin-4-yl-1H-indol-2-yl]methanone] | – | – | – | 23 | 5.2 | 1.1 |
